Reference: US11072617B2, “Bicyclic sulfones and sulfoxides and methods of use thereof” (Genentech, Inc., priority 2017, dated 2021)

molecular target: human RIP1 kinase domain (2-375) (Homo sapiens (Human), UniProt Q13546); experiment: RIP1 kinase inhibition biochemical assay (Transcreener ADP, fluorescence polarization); details: Ki app from tight-binding Morrison equation; 50 nM enzyme, 50 uM ATP, 2 hours incubation
Procedure: RIP1 Kinase Inhibition Assays (Biochemical Assay)
The compounds of the present invention were tested for their capacity to inhibit RIP1K activity as described below.
The ability of the receptor interacting protein kinase (RIPK1) to catalyze the hydrolysis of adenosine-5′-triphosphate (ATP) is monitored using the Transcreener ADP (adenosine-5′-diphosphate) assay (BellBrook Labs). Purified human RIP1 kinase domain (2-375) (50 nM) derived from a baculovirus-infected insect cell expression system is incubated with test compounds for 2 hours in 50 mM Hepes buffer (pH 7.5) containing 30 mM MgCl2, 1 mM dithiothreitol, 50 uM ATP, 0.002% Brij-35, and 0.5% dimethyl sulfoxide (DMSO). Reactions are quenched by the addition of 1× Bell Brooks Stop buffer B (20 mM Hepes (ph7.5), 40 mM ethylenediaminetetraacetic acid and 0.02% Brij-35) containing an additional 12 mM EDTA and 55 ug/mL ADP2 antibody and 4 nM ADP-AlexaFluor® 633 tracer. The tracer bound to the antibody is displaced by the ADP generated during the RIP1K reaction, which causes a decrease in fluorescence polarization that is measured by laser excitation at 633 nm with a FP microplate reader M1000. Fractional activity was plotted against test article concentration. Using Genedata Screener software (Genedata; Basel, Switzerland), the data were fit to the tight-binding apparent inhibition constant (Ki^app) Morrison equation [Williams, J. W. and Morrison, J. F. (1979) The kinetics of reversible tight-binding inhibition. Methods Enzymol 63: 437-67]. The following equation was used to calculate fractional activity and Ki^app:
[formula] where [E]T and [I]T are the total concentrations of active enzyme and test article, respectively.
Exemplary compounds of the present invention are provided in Table 1 along with their physiochemical characterization and in vitro RIP1 kinase inhibitory activity data. “Method” in the first column of each table refers to the synthetic method(s) used to prepare each compound as shown in the Examples above. In certain examples, chiral column retention times (min) are provided for certain stereoisomers. Unless otherwise specified, the stereochemistry shown in each structure represents relative configuration of a single stereoisomer, and absolute configuration (i.e., “R” and/or “S”) is arbitrarily assigned. In some embodiments, where the Method is described to include the separation of stereoisomers, a single stereoisomer of a compound of Table 1 is provided.

Chain of human RIP1 kinase domain (2-375) (Q13546 2-375): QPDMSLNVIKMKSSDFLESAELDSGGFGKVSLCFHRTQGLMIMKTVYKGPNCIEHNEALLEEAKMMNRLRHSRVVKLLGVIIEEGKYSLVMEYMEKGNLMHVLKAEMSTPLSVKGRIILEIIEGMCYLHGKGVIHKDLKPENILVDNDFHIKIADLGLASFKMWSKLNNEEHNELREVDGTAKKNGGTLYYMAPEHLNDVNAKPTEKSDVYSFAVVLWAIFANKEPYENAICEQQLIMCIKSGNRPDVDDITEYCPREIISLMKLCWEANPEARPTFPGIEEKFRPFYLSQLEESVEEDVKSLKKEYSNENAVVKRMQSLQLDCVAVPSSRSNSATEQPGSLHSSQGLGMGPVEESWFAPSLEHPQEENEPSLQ

Ki	SMILES
0.13 µM	[O-][S@+](CF)c1nc2n(n1)[C@H](c1cccc(F)c1)C[C@@H]2F (single isomer, unassigned) [Example 83]
0.31 µM	[O-][S+](c1nc2n(n1)[C@H](c1cc(F)cc(F)c1)CC2)C(F)F (stereo in doubt) [Example 174, (5S)-2-[(R)-difluoromethylsulfinyl]-5-(3,5-difluorophenyl)-6,7-dihydro-5H-pyrrolo[1,2-b][1,2,4]triazole]
0.008 µM	CC[S@+]([O-])c1nc2n(n1)[C@H](c1ccccc1)C[C@@H]2F (single isomer, unassigned) [Example 190]
0.048 µM	[O-][S@@+](c1nc2n(n1)[C@H](c1ccccc1)CC2)C(F)F [Example 12, (5S)-2-[(S)-difluoromethylsulfinyl]-5-phenyl-6,7-dihydro-5H-pyrrolo[1,2-b][1,2,4]triazole]
0.006 µM	O=S(=O)(c1nc2n(n1)[C@H](c1ccccc1)C[C@@H]2F)C1(F)CC1 (single isomer, unassigned) [Example 178]
< 0.005 µM	[O-][S@@+](CF)c1nc2n(n1)[C@H](c1cc(F)cc(F)c1)C[C@@H]2F (single isomer, unassigned) [Example 84]
0.005 µM	O=S(=O)(c1nc2n(n1)[C@H](c1ccccc1F)C[C@@H]2F)C1CC1 [Example 33, (5S,7S)-2-cyclopropylsulfonyl-7-fluoro-5-(2-fluorophenyl)-6,7-dihydro-5H-pyrrolo[1,2-b][1,2,4]triazole]
0.017 µM	[O-][S+](c1nc2n(n1)[C@H](c1cccc(F)c1)C[C@@H]2F)C(F)F (stereo partly drawn) [Example 54, (5S,7S)-2-((difluoromethyl)sulfinyl)-7-fluoro-5-(3-fluorophenyl)-6,7-dihydro-5H-pyrrolo[1,2-b][1,2,4]triazole]
0.024 µM	[O-][S+](Cc1ccccc1)c1nc2n(n1)[C@H](c1ccccc1)C[C@@H]2F (stereo partly drawn) [Example 20, (5S,7S)-2-benzylsulfinyl-7-fluoro-5-phenyl-6,7-dihydro-5H-pyrrolo[1,2-b][1,2,4]triazole]
0.29 µM	[O-][S@+](CF)c1nc2n(n1)[C@H](c1c(F)cccc1F)C[C@@H]2F (single isomer, unassigned) [Example 81]
0.018 µM	O=S(=O)(c1nc2n(n1)[C@H](c1cccc(Cl)c1F)C[C@@H]2F)C(F)F (single isomer, unassigned) [Example 65]
0.003 µM	O=S(=O)(c1nc2n(n1)[C@H](c1ccccc1)C[C@@H]2F)[C@H]1CC1(F)F [Example 130, (5S,7S)-2-(((S)-2,2-difluorocyclopropyl)sulfonyl)-7-fluoro-5-phenyl-6,7-dihydro-5H-pyrrolo[1,2-b][1,2,4]triazole]
0.006 µM	O=S(=O)(c1nc2n(n1)[C@H](c1cc(F)ccc1F)C[C@@H]2F)C1CC1 (single isomer, unassigned) [Example 37]
0.22 µM	O=S(=O)(c1nc2n(n1)C(c1cc(F)cc(F)c1)CC2)C(F)F (racemic) [Example 175, 2-(Difluoromethylsulfonyl)-5-(3,5-difluorophenyl)-6,7-dihydro-5H-pyrrolo[1,2-b][1,2,4]triazole]
1.04 µM	CS(=O)(=O)c1nc2n(n1)C(c1ccccc1)CC2 (racemic) [Example 9]
0.02 µM	O=S(=O)(c1nc2n(n1)[C@H](c1cccc(Cl)c1F)C[C@@H]2F)C1CC1 (single isomer, unassigned) [Example 46]
0.98 µM	O=S(=O)(c1nc2n(n1)[C@@H](c1ccccc1)C[C@H]2F)C1CC1 (single isomer, unassigned) [Example 14]
0.004 µM	N#CC[S@@+]([O-])c1nc2n(n1)[C@H](c1ccccc1Cl)C[C@@H]2F (single isomer, unassigned) [Example 94]
0.0093 µM	O=S(=O)(c1nc2n(n1)[C@H](c1cccc(F)c1)C[C@@H]2F)[C@H]1C[C@H](F)C1 (single isomer, unassigned) [Example 226]
< 0.005 µM	O=S(=O)(c1nc2n(n1)[C@H](c1cccc(F)c1F)C[C@@H]2F)[C@H]1CC1(F)F [Example 121, (5S,7S)-2-(2,2-difluorocyclopropyl)sulfonyl-5-(2,3-difluorophenyl)-7-fluoro-6,7-dihydro-5H-pyrrolo[1,2-b][1,2,4]triazole]

Ki	SMILES
0.1 µM	O=S(=O)(c1nc2n(n1)CCC2c1ccccc1)C(F)F (racemic) [Example 220, 2-(Difluoromethylsulfonyl)-7-phenyl-6,7-dihydro-5H-pyrrolo[1,2-b][1,2,4]triazole]
0.019 µM	[O-][S@+](CC(F)(F)F)c1nc2n(n1)[C@H](c1ccccc1)C[C@@H]2F (single isomer, unassigned) [Example 185]
0.17 µM	COCS(=O)(=O)c1nc2n(n1)[C@H](c1ccccc1)C[C@@H]2F (single isomer, unassigned) [Example 116]
0.017 µM	O=S(=O)(c1nc2n(n1)[C@H](c1ccccc1)C[C@@H]2F)C1CC(F)(F)C1 (single isomer, unassigned) [Example 50]
0.152 µM	O=S(=O)(c1nc2n(n1)C(c1ccccc1)CC2)C(F)(F)c1ccccc1 (racemic) [Example 4, 2-[difluoro(phenyl)methyl]sulfonyl-5-phenyl-6,7-dihydro-5H-pyrrolo[1,2-b][1,2,4]triazole]
< 0.005 µM	N#C[C@H]1C[C@@H]1S(=O)(=O)c1nc2n(n1)[C@H](c1ccccc1)C[C@@H]2F [Example 209, (1R,2S)-2-[[(5S,7S)-7-fluoro-5-phenyl-6,7-dihydro-5H-pyrrolo[1,2-b][1,2,4]triazol-2-yl]sulfonyl]cyclopropanecarbonitrile]
0.018 µM	N#CC1CC1S(=O)(=O)c1nc2n(n1)[C@H](c1ccccc1)C[C@@H]2F (stereo in doubt) [Example 221, (1S,2S)-2-[[(5S,7S)-7-fluoro-5-phenyl-6,7-dihydro-5H-pyrrolo[1,2-b][1,2,4]triazol-2-yl]sulfonyl]cyclopropanecarbonitrile]
0.01 µM	O=S(=O)(c1nc2n(n1)[C@H](c1ccccc1F)C[C@@H]2F)C1CC1F (stereo in doubt) [Example 206, (5S,7S)-7-fluoro-5-(2-fluorophenyl)-2-[(1R,2R)-2-fluorocyclopropyl]sulfonyl-6,7-dihydro-5H-pyrrolo[1,2-b][1,2,4]triazole]
0.032 µM	O=S(=O)(c1nc2n(n1)[C@H](c1cc(F)cc(Cl)c1)C[C@@H]2F)C(F)F (single isomer, unassigned) [Example 215]
0.037 µM	O=S(=O)(c1nc2n(n1)[C@H](c1cc(Cl)ccc1F)C[C@@H]2F)C1CC1F (stereo in doubt) [Example 207, (5S,7S)-5-(5-chloro-2-fluoro-phenyl)-7-fluoro-2-[(1S,2S)-2-fluorocyclopropyl]sulfonyl-6,7-dihydro-5H-pyrrolo[1,2-b][1,2,4]triazole]
< 0.005 µM	O=S(=O)(c1nc2n(n1)[C@H](c1ccccc1)C[C@@H]2F)C1CC12CC2 (stereo partly drawn) [Example 170, (5S,7S)-7-fluoro-5-phenyl-2-spiro[2.2]pentan-2-ylsulfonyl-6,7-dihydro-5H-pyrrolo[1,2-b][1,2,4]triazole]
0.014 µM	C[C@H]1C[C@@H]1S(=O)(=O)c1nc2n(n1)[C@H](c1ccccc1)C[C@@H]2F (mixture of isomers) [Example 162, (5S,7S)-7-fluoro-5-phenyl-2-[rac-(1S,2S)-2-methylcyclopropyl]sulfonyl-6,7-dihydro-5H-pyrrolo[1,2-b][1,2,4]triazole]
0.021 µM	O=S(=O)(c1nc2n(n1)[C@H](c1ccc(F)c(F)c1)C[C@@H]2F)C1CC1 (single isomer, unassigned) [Example 44]
0.21 µM	[O-][S@@+](c1nc2n(n1)[C@H](c1cccc(F)c1)C[C@@H]2F)C(F)F (single isomer, unassigned) [Example 179]
0.09 µM	[O-][S@+](CF)c1nc2n(n1)[C@H](c1ccccc1)C[C@@H]2F [Example 71]
0.101 µM	O=S(=O)(c1nc2n(n1)C(c1ccccc1)CC2)C(F)F (racemic) [Example 6]
0.012 µM	N#C[C@H]1C[C@H](S(=O)(=O)c2nc3n(n2)[C@H](c2ccccc2)C[C@@H]3F)C1 [Example 211, trans-3-[[(5S,7S)-7-Fluoro-5-phenyl-6,7-dihydro-5H-pyrrolo[1,2-b][1,2,4]triazol-2-yl]sulfonyl]cyclobutanecarbonitrile]
0.003 µM	N#CC[S@@+]([O-])c1nc2n(n1)[C@H](c1ccc(F)cc1)C[C@@H]2F (single isomer, unassigned) [Example 100]
0.01 µM	O=S(=O)(c1nc2n(n1)[C@H](c1c(F)ccc(F)c1F)C[C@@H]2F)C1CC1 (single isomer, unassigned) [Example 38]
0.19 µM	N#CC[S@+]([O-])c1nc2n(n1)[C@H](c1cccc(F)c1)C[C@@H]2F (single isomer, unassigned) [Example 97]
